The test system of one assay is RXR homodimers. The experiment in a line: Activation of RXR homodimers. The assay is classed as cell-based.
The next assay deals with SkBr3 cells. The assay can be described thus: Growth inhibition of SkBr3 breast cancer cells, DAPI nuclei count. The assay is classed as cell-based. To be noted: Her2+ SkBr3 cell line, FIG. 1B; IRX4204 10-1000 nM, trastuzumab 0.1-10 μg/ml. An excerpt: (§1) MCF7 is an ER^+ PR^+ Her2^− cell line. SkBr3 is an ER^− PR^− Her2^+ cell line. […] After a further 6 days, the cells were fixed with 4% paraformaldehyde in phosphate buffered saline (PBS).
(§2) Additionally the panel of breast cancer cell lines was expanded to also include the ER^+ PR^+ Her2^+ cell line BT474 and the ER^+ PR^− Her2^+ cell line MDA-MB-361.

The subject of a further assay is Nurr1/RXR heterodimer. The assay can be described thus: Activation of permissive heterodimer Nurr1/RXR. The assay is classed as cell-based.
The subject of another assay is RAR/RXR. The assay can be described thus: Activation of non-permissive heterodimer RAR/RXR. The assay is classed as cell-based.
The target in another assay is RARγ (Homo sapiens, UniProt P13631). To be noted: γ isoform.
Sequence of RARγ (P13631 whole entry, species assumed, canonical isoform): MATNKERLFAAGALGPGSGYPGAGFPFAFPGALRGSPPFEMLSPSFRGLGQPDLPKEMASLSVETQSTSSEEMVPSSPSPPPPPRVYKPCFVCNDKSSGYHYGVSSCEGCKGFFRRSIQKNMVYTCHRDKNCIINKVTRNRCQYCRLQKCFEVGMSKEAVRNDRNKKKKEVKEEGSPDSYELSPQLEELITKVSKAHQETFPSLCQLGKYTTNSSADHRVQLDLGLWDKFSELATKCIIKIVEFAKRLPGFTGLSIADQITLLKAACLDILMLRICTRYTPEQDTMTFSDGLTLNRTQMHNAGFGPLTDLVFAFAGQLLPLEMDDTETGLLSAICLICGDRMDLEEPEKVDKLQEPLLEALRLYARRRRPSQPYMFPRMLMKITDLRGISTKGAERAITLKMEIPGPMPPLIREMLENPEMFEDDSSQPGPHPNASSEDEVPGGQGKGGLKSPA
For a further assay, the target named is RARα (Homo sapiens, UniProt P10276). To be noted: α isoform.
Sequence of RARα (P10276 whole entry, species assumed, canonical isoform): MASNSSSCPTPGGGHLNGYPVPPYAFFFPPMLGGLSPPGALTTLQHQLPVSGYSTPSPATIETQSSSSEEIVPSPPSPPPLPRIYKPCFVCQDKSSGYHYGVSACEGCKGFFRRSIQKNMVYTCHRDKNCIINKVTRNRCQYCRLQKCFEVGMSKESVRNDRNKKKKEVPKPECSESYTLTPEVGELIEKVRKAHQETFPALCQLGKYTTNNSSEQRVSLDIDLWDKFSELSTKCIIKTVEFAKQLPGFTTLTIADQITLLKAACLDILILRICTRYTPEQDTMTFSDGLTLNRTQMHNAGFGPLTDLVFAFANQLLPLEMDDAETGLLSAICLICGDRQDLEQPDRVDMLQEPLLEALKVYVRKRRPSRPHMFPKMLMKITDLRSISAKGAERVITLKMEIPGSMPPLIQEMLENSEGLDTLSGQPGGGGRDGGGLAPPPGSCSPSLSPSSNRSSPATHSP
Another assay relates to MCF7 cells. The assay can be described thus: Growth inhibition of MCF7 breast cancer cells, DAPI nuclei count. Type of assay: cell-based. To be noted: Her2− MCF7 cell line, FIG. 1A; IRX4204 10-1000 nM, trastuzumab 0.1-10 μg/ml.
Source text: as §1, §2

The next assay has as its system FXR/RXR. The assay can be described thus: Activation of permissive heterodimer FXR/RXR. The assay is classed as cell-based.
Another assay relates to PPAR/RXR. The experiment in a line: Activation of permissive heterodimer PPAR/RXR. The assay is classed as cell-based.
In the next assay the target is RARβ (Homo sapiens, UniProt P10826). To be noted: β isoform.
Sequence of RARβ (P10826 whole entry, species assumed, canonical isoform): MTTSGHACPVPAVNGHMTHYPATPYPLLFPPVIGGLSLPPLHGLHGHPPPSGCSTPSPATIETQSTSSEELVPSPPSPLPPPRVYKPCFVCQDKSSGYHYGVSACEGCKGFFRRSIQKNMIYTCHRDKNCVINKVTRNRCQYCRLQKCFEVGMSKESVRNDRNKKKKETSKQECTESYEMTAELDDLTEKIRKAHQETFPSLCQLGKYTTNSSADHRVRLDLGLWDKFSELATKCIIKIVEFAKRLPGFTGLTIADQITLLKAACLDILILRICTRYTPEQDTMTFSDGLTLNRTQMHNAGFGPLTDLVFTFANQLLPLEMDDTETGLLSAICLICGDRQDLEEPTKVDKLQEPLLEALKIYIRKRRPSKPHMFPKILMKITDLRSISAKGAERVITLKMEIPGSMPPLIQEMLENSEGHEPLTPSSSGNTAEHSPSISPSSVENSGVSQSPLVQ
A further assay has as its system LXR/RXR. The assay can be described thus: Activation of permissive heterodimer LXR/RXR. Type of assay: cell-based.
In assay [1] the test system is PPAR/RXR, FXR/RXR, or LXR/RXR. To be noted: cited from earlier work.

Results on two compounds are retold here after patent US20220211652A1, “USE OF AN RXR AGONIST IN TREATING HER2+ CANCERS” (Io Therapeutics, Inc, priority 2019, published 2022).

For the compound `CC(/C=C/[C@@H]1C[C@]1(C)c1ccc2c(c1)C(C)(C)CCC2(C)C)=C\C(=O)O` [IRX4204, 3,7-dimethyl-6(S),7(S)-methano,7-[1,1,4,4-tetramethyl-1,2,3,4-tetrahydron-aphth-7-yl]2(E), 4(E) heptadienoic acid], the “activation of RXR homodimers (in words)” value with RXR homodimers is given as “specifically activate”. The results for the “growth inhibitory effect (in words)” value in the assay on SkBr3 cells and with MCF7 cells were “moderate growth inhibitory effect” and “neither agent had more than marginal effect”, respectively. The “activation of the Nurr1/RXR heterodimer (in words)” value in the assay with Nurr1/RXR heterodimer was “specifically activates”. Besides, in the assay on RAR/RXR, the “activation of non-permissive heterodimers such as RAR/RXR (in words)” value is “does not activate”. Moreover, the “RAR EC10 (concentration effective to cause a 10% of maximal activation of the RAR)” value at RARγ is given as 200 nM; on RARα it was 300 nM; on RARβ it was 200 nM. The “activation of FXR/RXR (in words)” value with FXR/RXR was “does not activate”. In the assay on PPAR/RXR, the “activation of PPAR/RXR (in words)” value was “does not activate”. For the same compound, in the assay on LXR/RXR, the “activation of LXR/RXR (in words)” value is listed as “does not activate”.

Consider `Cc1cc2c(cc1C1(c3ccc(C(=O)O)cn3)CC1)C(C)(C)CCC2(C)C` [LGD268], for which the “activation of one or more of PPAR/RXR, FXR/RXR, or LXR/RXR (in words)” value in [1] is given as “activates one or more”.
